Test results published in ChEMBL document CHEMBL4665622, “Repurposing ibuprofen to control Staphylococcus aureus biofilms” (2019).
Active and inactive are the calls of the source. The calls are words filed in the database; no cut-off is given here.

Legend:
Staphylococcus aureus [1] = assay: Antibiofilm activity against Staphylococcus aureus RN4220 preform-matured biofilm assessed as reduction in CFU per cm2 at 10 times of MIC incubated upto 24 hrs; type: functional; details: time hrs <=24
Staphylococcus aureus [2] = assay: Antibiofilm activity against Staphylococcus aureus RN4220 preform-matured biofilm assessed as reduction in CFU per cm2 at 5 times of MIC incubated upto 24 hrs; type: functional; details: time hrs <=24
Staphylococcus aureus [3] = assay: Antibiofilm activity against Staphylococcus aureus SA1199B preform-matured biofilm assessed as reduction in CFU at 5 and 10 times of MIC incubated upto 24 hrs relative to control; type: functional; set-up: scale not given: the % may be the effect or the level left; details: time hrs <=24
Staphylococcus aureus [4] = assay: Antibiofilm activity against Staphylococcus aureus XU212 preform-matured biofilm assessed as reduction in CFU upto 10 times of MIC incubated upto 24 hrs relative to control; type: functional; set-up: scale not given: the % may be the effect or the level left; details: time hrs <=24
Staphylococcus aureus [5] = assay: Antibiofilm activity against Staphylococcus aureus SA1199B preform-matured biofilm assessed as increase in biofilm inactivation upto 10 times of MIC incubated upto 24 hrs relative to control; type: functional; details: time hrs <=24
Staphylococcus aureus [6] = assay: Antibiofilm activity against Staphylococcus aureus XU212 preform-matured biofilm assessed as increase in biofilm removal at MIC incubated upto 24 hrs relative to control; type: functional; details: time hrs <=24
Staphylococcus aureus [7] = assay: Antibiofilm activity against Staphylococcus aureus XU212 preform-matured biofilm assessed as increase in biofilm inactivation upto 10 times of MIC incubated upto 24 hrs relative to control; type: functional; details: time hrs <=24
Staphylococcus aureus [8] = assay: Antibiofilm activity against Staphylococcus aureus XU212 preform-matured biofilm assessed as increase in biofilm removal at 5 and 10 times of MIC incubated upto 24 hrs relative to control; type: functional; details: time hrs <=24
Staphylococcus aureus [9] = assay: Antibiofilm activity against Staphylococcus aureus SA1199B preform-matured biofilm assessed as increase in biofilm removal at 5 and 10 times of MIC incubated upto 24 hrs relative to control; type: functional; details: time hrs <=24
Staphylococcus aureus [10] = assay: Antibiofilm activity against Staphylococcus aureus SA1199B preform-matured biofilm assessed as increase in biofilm removal at MIC incubated upto 24 hrs relative to control; type: functional; details: time hrs <=24
Staphylococcus aureus [11] = assay: Antibiofilm activity against Staphylococcus aureus RN4220 preform-matured biofilm assessed as increase in biofilm removal at 5 and 10 times of MIC incubated upto 24 hrs relative to control; type: functional; details: time hrs <=24
Staphylococcus aureus [12] = assay: Antibiofilm activity against Staphylococcus aureus RN4220 preform-matured biofilm assessed as increase in biofilm removal at MIC incubated upto 24 hrs relative to control; type: functional; details: time hrs <=24
Staphylococcus aureus [13] = assay: Antibiofilm activity against Staphylococcus aureus CECT 976 preform-matured biofilm assessed as reduction in CFU per cm2 at MIC incubated for 6 hrs; type: functional
Staphylococcus aureus [14] = assay: Antibiofilm activity against Staphylococcus aureus CECT 976 preform-matured biofilm assessed as reduction in CFU at MIC incubated for 24 hrs; type: functional, organism-based
Staphylococcus aureus [15] = assay: Antibiofilm activity against Staphylococcus aureus RN4220 preform-matured biofilm assessed as increase in biofilm inactivation upto 10 times of MIC incubated upto 24 hrs relative to control; type: functional; details: time hrs <=24
Staphylococcus aureus [16] = assay: Antibiofilm activity against Staphylococcus aureus CECT 976 preform-matured biofilm assessed as increase in biofilm inactivation at upto 10 times of MIC incubated upto 24 hrs relative to control; type: functional; details: time hrs <=24
Staphylococcus aureus [17] = assay: Antibiofilm activity against Staphylococcus aureus CECT 976 preform-matured biofilm assessed as increase in biofilm removal at upto 10 times of MIC incubated for 24 hrs; type: functional, organism-based; details: time 1.0 hrs
Staphylococcus aureus [18] = assay: Antibiofilm activity against Staphylococcus aureus CECT 976 preform-matured biofilm assessed as increase in biofilm removal at upto 10 times of MIC incubated for 1 hr; type: functional, organism-based
Staphylococcus aureus [19] = assay: Antibiofilm activity against Staphylococcus aureus CECT 976 preform-matured biofilm assessed as increase in biofilm removal at 10 times of MIC incubated for 6 hrs relative to control; type: functional
Staphylococcus aureus [20] = assay: Antibiofilm activity against Staphylococcus aureus CECT 976 preform-matured biofilm assessed as increase in biofilm removal at 5 times of MIC incubated for 6 hrs relative to control; type: functional
Staphylococcus aureus [21] = assay: Antibiofilm activity against Staphylococcus aureus CECT 976 preform-matured biofilm assessed as increase in biofilm removal at MIC incubated for 6 hrs relative to control; type: functional
Staphylococcus aureus [22] = assay: Inhibition of cell adhesion in Staphylococcus aureus CECT 976 assessed as decrease in CFU at 10 times of MIC incubated upto 24 hrs relative to control; type: functional; details: time hrs <=24
Staphylococcus aureus [23] = assay: Inhibition of cell adhesion in Staphylococcus aureus CECT 976 assessed as decrease in biomass content incubated upto 24 hrs; type: functional, organism-based; details: time hrs <=24
Staphylococcus aureus [24] = assay: Inhibition of cell adhesion in Staphylococcus aureus CECT 976 assessed as decrease in biomass content at upto 10 times of MIC incubated upto 24 hrs relative to control; type: functional; details: time hrs <=24
Cell membrane [25] = assay: Effect on surface tension of Staphylococcus aureus CECT 976 assessed as hydrophobicity at MIC incubated for 1 hr (reference value: 34.8 +/- 1.3 mJ/m2); type: subcellular
Cell membrane [26] = assay: Effect on surface tension of Staphylococcus aureus CECT 976 assessed as hydrophobicity at 0.5 times of MIC incubated for 1 hr (reference value: 34.8 +/- 1.3 mJ/m2); type: subcellular
Cell membrane [27] = assay: Effect on surface tension of Staphylococcus aureus CECT 976 assessed as hydrophobicity at 0.25 times of MIC incubated for 1 hr (reference value: 34.8 +/- 1.3 mJ/m2); type: subcellular
Cell membrane [28] = assay: Effect on surface tension of Staphylococcus aureus CECT 976 assessed as electron donor component at MIC incubated for 1 hr (reference value: 55 +/- 0.9 mJ/m2); type: subcellular
Cell membrane [29] = assay: Effect on surface tension of Staphylococcus aureus CECT 976 assessed as electron donor component at 0.5 times of MIC incubated for 1 hr (reference value: 55 +/- 0.9 mJ/m2); type: subcellular
Cell membrane [30] = assay: Effect on surface tension of Staphylococcus aureus CECT 976 assessed as electron donor component at 0.25 times of MIC incubated for 1 hr (reference value: 55 +/- 0.9 mJ/m2); type: subcellular
Cell membrane [31] = assay: Effect on surface tension of Staphylococcus aureus CECT 976 assessed as electron acceptor component at MIC incubated for 1 hr (reference value: 0.5 +/- 0.1 mJ/m2); type: subcellular

Compound: CC(C)Cc1ccc(C(C)C(=O)O)cc1 (stereo unspecified) [IBUPROFEN]
- Activity (Staphylococcus aureus [1]): 2.5 log10CFU
- Activity (Staphylococcus aureus [2]): 1.8 log10CFU
- Activity (Staphylococcus aureus [3]): 100%
- Activity (Staphylococcus aureus [4]): 100%
- Activity (Staphylococcus aureus [5]): <=55%
- Activity (Staphylococcus aureus [6]): <=14%
- Activity (Staphylococcus aureus [7]): <=55%
- Activity (Staphylococcus aureus [8]): 0%
- Activity (Staphylococcus aureus [9]): 0%
- Activity (Staphylococcus aureus [10]): <=14%
- Activity (Staphylococcus aureus [11]): 0%
- Activity (Staphylococcus aureus [12]): <=14%
- Activity (Staphylococcus aureus [13]): 0.8 log10CFU
- inhibition (Staphylococcus aureus [14]): Active
- Activity (Staphylococcus aureus [15]): <=55%
- inhibition (INH) (Staphylococcus aureus [16]): <=80%
- inhibition (Staphylococcus aureus [17]): Dose-dependent effect
- inhibition (Staphylococcus aureus [18]): Dose-dependent effect
- inhibition (INH) (Staphylococcus aureus [19]): 39%
- inhibition (INH) (Staphylococcus aureus [20]): 42%
- inhibition (INH) (Staphylococcus aureus [21]): 42%
- inhibition (INH) (Staphylococcus aureus [22]): 100%
- inhibition (Staphylococcus aureus [23]): Dose-dependent effect
- inhibition (INH) (Staphylococcus aureus [24]): <=38.5%
- Activity (Cell membrane [25]): 30.1 mJ/m2
- Activity (Cell membrane [26]): 27.9 mJ/m2
- Activity (Cell membrane [27]): 27.3 mJ/m2
- Activity (Cell membrane [28]): 50 mJ/m2
- Activity (Cell membrane [29]): 49.7 mJ/m2
- Activity (Cell membrane [30]): 48.8 mJ/m2
- Activity (Cell membrane [31]): 1.7 mJ/m2
